Source: patent US20160310510A1, “MEDICINAL COSMETIC LIPOATROPHY” (priority 2009, published 2016)
Entries after “also recorded” stand apart in the source; their conditions may differ.

Key:
[1] = tested on: SQ adipose tissue of the face; test: Facial MRI before and after triamcinolone injections, thickness of SQ adipose tissue; format: in vivo, human
Description: (§1) A series of cases of small localized fat deposits on the face were treated with local triancinolone from March 2005 to October 2008 at a private clinic in Porto Alegre, southern of Brazil. […] They received injections of triamcinolone (Kenalog®-40 Injection) diluted in anesthetic solution (0.02 g/mL Lidocaine plus 0.0004 g/mL Phenilephrine—Novocol®), in different doses and number of applications (up to 3 injections, once a month), according to patient's needs. […] Patients received injections in these fatty areas of the face, through a 0.3 cc BD Ultra Fine II syringe with short needle of minimum 7 or 8 mm long.
One patient was submitted to a facial Magnetic Resonance Imaging (MRI) exam before and after the triamcinolone injections, in order to show the results in terms of the changes in the thickness of subcutaneous tissue. Magnetic resonance imaging examination was performed with 1.5 Tesla Closed Bore Scanner (Magnetom Symphony Maestro Class, Siemens, Erlangen, Germany) with dedicated flexible coils. T1-weighted (600 ms/14 ms, Time Repetition/Time Echo) and T2-weighted (2500 ms/45 ms, TR/TE) turbo spin echo sequences were performed in coronal, axial and sagittal planes, with emphasis on the sagittal plane. An experienced radiologist evaluated the MRI images. The thickness of SQ adipose tissue was measured with Syngo software (Siemens, Erlangen, Germany) in millimetres (mm).

adipocytes = test: Punch biopsies before and after single treatment, HE histology and morphometry of adipocytes; format: in vivo, human
Description: as §1
Another patient was submitted to 3 mm punch biopsies (one on the submental area and another on suprapubical area) before and after single treatment. Histological specimens of SQ tissue were stained with hematoxylin and eosin (HE stain) and […] was also performed in the histological images of before and after treatment samples.

[2] = cited from earlier work
[3] = tested on: small localized fat deposits on the face; test: Retrospective series of 56 patients treated with local triamcinolone injections: clinical evaluation, satisfaction, side effects

In the case of `CC1(C)O[C@@H]2C[C@H]3[C@@H]4CCC5=CC(=O)C=C[C@]5(C)[C@@]4(F)[C@@H](O)C[C@]3(C)[C@]2(C(=O)CO)O1` [triamcinolone, Triamcinolone acetonide], the “reduction of the thickness of the study area of facial fat (MRI)” value ([1]; after single session of injections, FIGS. 3 and 4) is reported as 27.3%, the “thickness of the study area of facial fat after treatment (MRI)” value ([1]; after single session, before treatment 1.1 cm) is reported as 0.8 cm and the “reduction of the fat thickness showed by MRI” value ([1]; mandibular area) is reported as 37.5%. The “fat thickness after treatment (MRI)” value ([1]; mandibular area, before treatment 0.8 cm) was 0.5 cm, the “reduction of the fat thickness showed by MRI” value ([1]; submental area) was 33.3% and the “fat thickness after treatment (MRI)” value ([1]; submental area, before treatment 0.6 cm) was 0.4 cm. The “reduction in the volume of adipocytes in the sites of the injections (histological analysis)” value (adipocytes; before and after single treatment biopsies) was “about 30%”, the “average number of adipocytes observed in the optical field at the same magnification” value (adipocytes; suprapubical area biopsy, one month after a single injection, before treatment 4) was 7 adipocytes per field and the “average diameter of the adipocytes” value (adipocytes; suprapubical area biopsy, one month after a single injection, before treatment 190) was 153 pixels. The “average area of the adipocytes” value (adipocytes; suprapubical area biopsy, one month after a single injection, before treatment 31661) was 21705 pixels, the “concentration with greater risk of cutaneous atrophy” value ([2]; intralesional injections, Pariser and Murray 1963) was “above 5 mg/cm^3” and the safe dose ([2]; local injections) was “less than 0.15 mg/kg”. For the same compound, the “subject satisfaction with the results of the procedure” value ([3]; 29 subjects (51.78%) who returned for evaluation) was “very satisfied”, the “physician evaluation of clinical and cosmetic improvement” value ([3]; 29 subjects who returned for evaluation) was “good clinical and cosmetic improvement of facial contour” and the “serious / severe adverse events” value ([3]; Kenalog-40 diluted in lidocaine plus phenilephrine, up to 3 monthly subcutaneous injection sessions) was “No severe local or systemic side effects were observed; also recorded: did not presented serious adverse events”. The “local side effects observed” value ([3]; during and after the injections) was “pain and slight erythema; also recorded: hematomas in variable number and size” and the “number of patients with cosmetic local side effects” value ([3]; of the treated series) was “three”.
